Values of other authors, collected in patent publication US12318421B2 (priority 2020, dated 2025).

Target: α-glucosidase
Conditions: values disclosed in references

## O=c1cc(-c2ccc(O)cc2)oc2cc(O)c([C@@H]3O[C@H](CO)[C@@H](O)[C@H](O)[C@H]3O)c(O)c12 [isovitexin]
  IC50 of α-glucosidase activity disclosed in references: 46.9 µg/mL
